In general, inhibition refers to the relative decrease from the control value, in per cent.

The subject of assay [1] is SOCE (store operated calcium entry) in CHO cells. Kind of assay: Assay of SOCE (store operated calcium entry)-inhibiting action. Format: cell-based, Chinese hamster. Conditions: CHO cells, thapsigargin; for inhibition at 10 µM / inhibition at 30 µM / inhibition at 100 µM: Cricetulus griseus, CHO, read-out: SOCE level (percentage of inhibition); for inhibition at 10 µM: test compound 10 μmol. The essentials:
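CHO cells in calcium-free BSS received compound, then 1 μM thapsigargin 2 min later to deplete stores; after 9 min, 2 mM calcium chloride (final) added. Percent inhibition of the rise in intracellular calcium determined at various compound concentrations.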

The test system of assay [2] is IICR (IP3 induced calcium release) in CHO cells. Kind of assay: Assay of IICR (IP3 induced calcium release)-inhibiting action. In kind it is cell-based, Chinese hamster. Conditions: CHO cells, 10 μM ATP; for inhibition at 10 µM / inhibition at 30 µM / inhibition at 100 µM: Cricetulus griseus, CHO, read-out: IICR level (percentage of inhibition). In short, it runs like this:
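CHO cell medium replaced with calcium-containing BSS; compound added 1 min later, then 10 μM ATP after a further 2 min. Percent inhibition of the ATP-evoked rise in intracellular calcium determined at each compound concentration.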

Take `CC(C)(C)N(CCC(=O)c1ccc(Cl)cc1)Cc1ccccc1` [Example 305, 2-(N-t-butyl-N-benzyl)aminoethyl-4-chlorophenylketone]: the inhibition at 10 µM in assay [1] came to 20%; in assay [2] (test compound 10 μmol) it was 60%. The results for the inhibition at 30 µM in assay [1] (test compound 30 μmol) and in assay [2] (test compound 30 μmol) were 20% and 70%, respectively. Also, the inhibition at 100 µM was 60% in assay [1] (test compound 100 μmol) and 50% in assay [2] (test compound 100 μmol).
Take `Cc1ccc(C(=O)CCNCCO)s1` [Example 306, 2-(N-hydroxyethyl)aminoethyl-5-methyl-2-thienylketone]: the values for the inhibition at 10 µM in assay [1] and in assay [2] (test compound 10 μmol) were 10% and 50%, respectively. For the same molecule, the inhibition at 30 µM in assay [1] (test compound 30 μmol) and in assay [2] (test compound 30 μmol) was 20% each time. Besides, the inhibition at 100 µM in assay [1] (test compound 100 μmol) and in assay [2] (test compound 100 μmol) was 30% in each case.
With `O=C(CCNCCO)c1ccc(Br)s1` [Example 307, 2-(N-hydroxyethyl)aminoethyl-5-bromo-2-thienylketone], the inhibition at 10 µM in assay [1] was determined as 0%. The “SOCE level (percentage of inhibition)” value in assay [1] (test compound 30 μmol) and in assay [1] (test compound 100 μmol) was 10% in each case. Further, the “IICR level (percentage of inhibition)” value in assay [2] (test compound 10 μmol) turned out to be 30%; in assay [2] (test compound 30 μmol), 20%; in assay [2] (test compound 100 μmol), 30%.
With `CC(C)N(CCC(=O)c1ccc(C#N)cc1)Cc1ccccc1` [Example 308, 2-(N-benzylisopropyl)aminoethyl-4-cyanophenylketone], the inhibition at 10 µM in assay [1] was 0%; in assay [2] (test compound 10 μmol), 90%. Besides, the values for the inhibition at 30 µM in assay [1] (test compound 30 μmol) and in assay [2] (test compound 30 μmol) were 0% and 100%, respectively. Also, the inhibition at 100 µM in assay [1] (test compound 100 μmol) is 10%; in assay [2] (test compound 100 μmol) it was 95%.
For `CC(C)N(CCO)CCC(=O)c1ccc(C#N)cc1` [Example 309, 2-(N-hydroxylethylisopropyl)aminoethyl-4-cyanophenylketone], the inhibition at 10 µM in assay [1] and in assay [2] (test compound 10 μmol) was 0% in each case. In addition, the inhibition at 30 µM in assay [1] (test compound 30 μmol) and in assay [2] (test compound 30 μmol) was 0% each time. In addition, the figures for the inhibition at 100 µM in assay [1] (test compound 100 μmol) and in assay [2] (test compound 100 μmol) were 10% and 20%, respectively.
As to `CC(C)N(CCC(=O)c1ccc(Cl)cc1)Cc1ccccc1` [Example 310, 2-(N-benzylisopropyl)aminoethyl-4-chloro-phenylketone], the inhibition at 10 µM in assay [1] came to 0%; in assay [2] (test compound 10 μmol) it was 80%. The inhibition at 30 µM in assay [1] (test compound 30 μmol) came to 0%; in assay [2] (test compound 30 μmol), 80%. The figures for the inhibition at 100 µM in assay [1] (test compound 100 μmol) and in assay [2] (test compound 100 μmol) were 10% and 70%, respectively.
Turning to `CC(C)N(CCO)CCC(=O)c1ccc(Cl)cc1` [Example 311, 2-(N-hydroxyethylisopropyl)aminoethyl-4-chloro-phenylketone], the inhibition at 10 µM stood at 0% in assay [1] and 50% in assay [2] (test compound 10 μmol). Also, the inhibition at 30 µM was determined as 0% in assay [1] (test compound 30 μmol) and 30% in assay [2] (test compound 30 μmol). Also, the values for the inhibition at 100 µM in assay [1] (test compound 100 μmol) and in assay [2] (test compound 100 μmol) were 10% and 50%, respectively.
As for `CC(C)N(CCO)CCC(=O)c1ccccc1` [Example 312, 2-(N-hydroxyethylisopropyl)aminoethylphenylketone], the values for the inhibition at 10 µM in assay [1] and in assay [2] (test compound 10 μmol) were 0% and 20%, respectively. In addition, the inhibition at 30 µM in assay [1] (test compound 30 μmol) came out at 0%; in assay [2] (test compound 30 μmol) it was 20%. Further, the inhibition at 100 µM was 10% in assay [1] (test compound 100 μmol) and 80% in assay [2] (test compound 100 μmol).
For the molecule `CCN(CCC(=O)c1ccc(F)cc1)Cc1ccccc1` [Example 313, 2-(N-benzylethyl)aminoethyl-4-fluoro-phenylketone], the inhibition at 10 µM was 0% in assay [1] and 20% in assay [2] (test compound 10 μmol). In addition, the inhibition at 30 µM amounted to 0% in assay [1] (test compound 30 μmol) and 20% in assay [2] (test compound 30 μmol). Further, the inhibition at 100 µM in assay [1] (test compound 100 μmol) and in assay [2] (test compound 100 μmol) was 30% each time.
Regarding `Cc1ccsc1C(=O)CCN(Cc1ccccc1)C(C)(C)C` [Example 314, 2-(N-benzyl-t-butyl)aminoethyl-3-methyl-2-thienylketone], the inhibition at 10 µM in assay [1] amounted to 0%; in assay [2] (test compound 10 μmol), 70%. Further, the inhibition at 30 µM in assay [1] (test compound 30 μmol) was determined as 10%; in assay [2] (test compound 30 μmol), 70%. Further, the inhibition at 100 µM turned out to be 20% in assay [1] (test compound 100 μmol) and 100% in assay [2] (test compound 100 μmol).
Regarding `Cc1csc(C(=O)CCN(Cc2ccccc2)C(C)(C)C)c1` [Example 315, 2-(N-benzyl-t-butyl)aminoethyl-4-methyl-2-thienylketone], the inhibition at 10 µM was found to be 0% in assay [1] and 80% in assay [2] (test compound 10 μmol). Moreover, the inhibition at 30 µM was determined as 0% in assay [1] (test compound 30 μmol) and 90% in assay [2] (test compound 30 μmol). Besides, the figures for the inhibition at 100 µM in assay [1] (test compound 100 μmol) and in assay [2] (test compound 100 μmol) were 30% and 100%, respectively.
For the molecule `Cc1ccc(C(=O)CCN(Cc2ccccc2)C(C)(C)C)s1` [Example 316, 2-(N-benzyl-t-butyl)aminoethyl-5-methyl-2-thienylketone], the inhibition at 10 µM was 0% in assay [1] and 70% in assay [2] (test compound 10 μmol). For the same molecule, the inhibition at 30 µM in assay [1] (test compound 30 μmol) was 10%; in assay [2] (test compound 30 μmol) it was 80%. Besides, the inhibition at 100 µM in assay [1] (test compound 100 μmol) turned out to be 20%; in assay [2] (test compound 100 μmol), 100%.
`CC(C)(C)N(CCC(=O)c1ccc2c(c1)OCCO2)Cc1ccccc1` [Example 317, 2-(N-benzyl-t-butyl)aminoethyl-5,6-ethylenedioxy-2-phenylketone]: the inhibition at 10 µM in assay [1] stood at 10%; in assay [2] (test compound 10 μmol), 90%. The values for the inhibition at 30 µM in assay [1] (test compound 30 μmol) and in assay [2] (test compound 30 μmol) were 10% and 95%, respectively. Further, the inhibition at 100 µM in assay [1] (test compound 100 μmol) worked out at 30%; in assay [2] (test compound 100 μmol), 100%.
For the molecule `Cc1ccc(C(=O)CCN(Cc2ccccc2)C(C)C)s1` [Example 318, 2-(N-benzylisopropyl)aminoethyl-5-methyl-2-thienylketone], the inhibition at 10 µM in assay [1] and in assay [2] (test compound 10 μmol) was 10% throughout. Moreover, the inhibition at 30 µM in assay [1] (test compound 30 μmol) turned out to be 20%; in assay [2] (test compound 30 μmol), 60%. The inhibition at 100 µM is 40% in assay [1] (test compound 100 μmol) and 80% in assay [2] (test compound 100 μmol).
Turning to `CCN(CCC(=O)c1ccc(C)s1)Cc1ccccc1` [Example 319, 2-(N-benzylethyl)aminoethyl-5-methyl-2-thienylketone], the inhibition at 10 µM in assay [1] came to 0%; in assay [2] (test compound 10 μmol) it was 20%. The inhibition at 30 µM in assay [1] (test compound 30 μmol) and in assay [2] (test compound 30 μmol) was 10% in each case. Besides, the inhibition at 100 µM in assay [1] (test compound 100 μmol) is 20%; in assay [2] (test compound 100 μmol), 70%.
Regarding `O=C(CCN(CCO)CCO)c1ccc(I)s1` [Example 320], the inhibition at 10 µM was 20% in assay [1] and 0% in assay [2] (test compound 10 μmol). Moreover, the inhibition at 30 µM in assay [1] (test compound 30 μmol) turned out to be 40%; in assay [2] (test compound 30 μmol) it was 0%. The values for the inhibition at 100 µM in assay [1] (test compound 100 μmol) and in assay [2] (test compound 100 μmol) were 50% and 70%, respectively.
For the molecule `Cc1csc(C(=O)CCN(Cc2ccccc2)C(C)C)c1` [Example 321, 2-(N-benzylisopropyl)aminoethyl-4-methyl-2-thienylketone], the inhibition at 10 µM in assay [1] was determined as 0%; in assay [2] (test compound 10 μmol), 20%. The inhibition at 30 µM in assay [1] (test compound 30 μmol) stood at 0%; in assay [2] (test compound 30 μmol), 70%. Moreover, the inhibition at 100 µM in assay [1] (test compound 100 μmol) stood at 0%; in assay [2] (test compound 100 μmol), 100%.
Consider `Cc1csc(C(=O)CCN(Cc2ccccc2)Cc2ccccc2)c1` [Example 322, 2-(N-dibenzyl)aminoethyl-4-methyl-2-thienylketone], for which the inhibition at 10 µM in assay [1] was determined as 0%; in assay [2] (test compound 10 μmol), 10%. Also, the inhibition at 30 µM in assay [1] (test compound 30 μmol) is 10%; in assay [2] (test compound 30 μmol), 20%. The values for the inhibition at 100 µM in assay [1] (test compound 100 μmol) and in assay [2] (test compound 100 μmol) were 20% and 30%, respectively.
Regarding `Cc1csc(C(=O)CCN(CCO)Cc2ccccc2)c1` [Example 323, 2-(N-benzylhydroxyethyl)aminoethyl-4-methyl-2-thienylketone], the results for the inhibition at 10 µM in assay [1] and in assay [2] (test compound 10 μmol) were 0% and 30%, respectively. Moreover, the values for the inhibition at 30 µM in assay [1] (test compound 30 μmol) and in assay [2] (test compound 30 μmol) were 0% and 50%, respectively. Moreover, the inhibition at 100 µM in assay [1] (test compound 100 μmol) and in assay [2] (test compound 100 μmol) was 30% throughout.
For `CC(C)(C)N(CCC(=O)c1ccc(Br)cc1)Cc1ccccc1` [Example 324, 2-(N-benzyl-t-butyl)aminoethyl-4-bromophenylketone], the results for the inhibition at 10 µM in assay [1] and in assay [2] (test compound 10 μmol) were 20% and 50%, respectively. For the same molecule, the results for the inhibition at 30 µM in assay [1] (test compound 30 μmol) and in assay [2] (test compound 30 μmol) were 20% and 40%, respectively. For the same molecule, the inhibition at 100 µM was 20% in assay [1] (test compound 100 μmol) and 40% in assay [2] (test compound 100 μmol).
In the case of `O=C(CCN(Cc1ccccc1)Cc1ccccc1)c1ccc(Br)s1` [Example 325, 2-(N-dibenzyl)aminoethyl-5-bromo-2-thienylketone], the inhibition at 10 µM in assay [1] was 0%; in assay [2] (test compound 10 μmol) it was 20%. Further, the inhibition at 30 µM in assay [1] (test compound 30 μmol) and in assay [2] (test compound 30 μmol) was 20% throughout. The inhibition at 100 µM in assay [1] (test compound 100 μmol) was 40%; in assay [2] (test compound 100 μmol), 50%.
With `CN(CCC(=O)c1ccc(Br)s1)Cc1ccccc1` [Example 326, 2-(N-benzylmethyl)aminoethyl-5-bromo-2-thienylketone], the figures for the inhibition at 10 µM in assay [1] and in assay [2] (test compound 10 μmol) were 10% and 40%, respectively. Besides, the inhibition at 30 µM stood at 30% in assay [1] (test compound 30 μmol) and 10% in assay [2] (test compound 30 μmol). In addition, the results for the inhibition at 100 µM in assay [1] (test compound 100 μmol) and in assay [2] (test compound 100 μmol) were 60% and 40%, respectively.

(Values after patent US8937091B2 (Japan Science and Technology Agency, priority 2009, dated 2015).)
